Measurements as given in ChEMBL document CHEMBL1138674, “Validation of automated docking programs for docking and database screening against RNA drug targets” (J Med Chem, 2004).
pKd: −log10 of the molar value.

Experiment: Dissociation constant of the compound
Assay type: physicochemical

Molecule	pKd
NC[C@H]1O[C@H](O[C@H]2[C@H](O)[C@@H](O[C@H]3O[C@H](CO)[C@@H](O)[C@H](N)[C@H]3O)[C@H](N)C[C@@H]2N)[C@H](N)C[C@@H]1O [TOBRAMYCIN]	9.05
N=C(N)NCCC[C@H](N)C(=O)O (stereo in doubt; form 2) [ARGININE]	3.00
NC(=O)NCCC[C@H](N)C(=O)O [L-CITRULLINE]	4.17
NC[C@@H]1O[C@H](O[C@H]2[C@@H](O)[C@H](O[C@@H]3[C@@H](O)[C@H](N)C[C@H](N)[C@H]3O[C@H]3O[C@H](CO)[C@@H](O)[C@H](O)[C@H]3N)O[C@@H]2CO)[C@H](N)[C@@H](O)[C@@H]1O [PAROMOMYCIN]	6.70
CC(=O)c1ccc2c(c1)N(CCCN(C)C)c1ccccc1S2 [ACEPROMAZINE]	7.00
Nc1ncnc2c1ncn2[C@@H]1O[C@H](COP(=O)(O)O)[C@@H](O)[C@H]1O [ADENOSINE PHOSPHATE]	5.57
O=C(O)CCCC[C@@H]1SC[C@@H]2NC(=O)N[C@@H]21 [BIOTIN]	5.22
Cc1cc2nc3c(=O)[nH]c(=O)nc-3n(C[C@H](O)[C@H](O)[C@H](O)COP(=O)(O)O)c2cc1C [RIBOFLAVIN 5'-PHOSPHATE]	6.30
N=C(N)NCCC[C@H](N)C(=O)O (stereo in doubt; form 1) [ARGININE]	4.22
NC[C@H]1O[C@H](O[C@H]2[C@H](O)[C@@H](O)[C@H](N)C[C@@H]2N)[C@H](N)[C@@H](O)[C@@H]1O [NEAMINE]	6.00
Cn1c(=O)c2[nH]cnc2n(C)c1=O [THEOPHYLLINE]	6.40
NC[C@@H]1O[C@H](O[C@H]2[C@@H](O)[C@H](O[C@@H]3[C@@H](O)[C@H](N)C[C@H](N)[C@H]3O[C@H]3O[C@H](CN)[C@@H](O)[C@H](O)[C@H]3N)O[C@@H]2CO)[C@H](N)[C@@H](O)[C@@H]1O (stereo in doubt; form 2) [FRAMYCETIN]	7.00
GENTAMICIN	8.00
NC[C@@H]1O[C@H](O[C@H]2[C@@H](O)[C@H](O[C@@H]3[C@@H](O)[C@H](N)C[C@H](N)[C@H]3O[C@H]3O[C@H](CN)[C@@H](O)[C@H](O)[C@H]3N)O[C@@H]2CO)[C@H](N)[C@@H](O)[C@@H]1O (stereo in doubt; form 1) [FRAMYCETIN]	6.00
